Laboratory results published in US9802944B2, “Bicyclic compounds as autotaxin (ATX) and lysophosphatidic acid (LPA) production inhibitors” (Hoffmann-La Roche Inc., priority 2014, dated 2017).

Each compound was assayed against ATX (human His-tagged) (Homo sapiens (Human), UniProt Q13822) (assay: Human ATX enzyme inhibition assay (fluorescence quenching, MR121 substrate)). Conditions: 30 nM ATX, 1 μM MR121 substrate, 30° C., pH 8.0.
Assay type: biochemical
Experimental: Production of Human Full Length ATX, with and without his Tag
Autotaxin (ATX-ENPP2) Cloning:
cDNA was prepared from commercial human hematopoietic cells total RNA and used as template in overlapping PCR to generate a full length human ENPP2 ORF with or without a 3′-6×His tag. These full length inserts were cloned into the pcDNA3.1V5-His TOPO (Invitrogen) vector. The DNA sequences of several single clones were verified. The DNA from a correct full length clone was used to transfect Hek293 cells for verification of protein expression. […] ATX Fermentation: Recombinant protein was produced by large-scale transient transfection in 20 L controlled stirred tank bioreactors (Sartorius). During cell growth and transfection, temperature, stirrer speed, pH and dissolved oxygen concentration were maintained at 37° C., 120 rpm, 7.1 and 30% DO, respectively. […] Expression was analyzed by Western Blot, enzymatic assay and/or analytical IMAC chromatography. After cooling the cell suspension to 4° C. in a flow-through heat exchanger, cell separation and sterile filtration of supernatant was performed by filtration through Zeta Plus 60M02 E16 (Cuno) and Sartopore 2 XLG (Sartorius) filter units. The supernatant was stored at 4° C. prior to purification. ATX Purification: 20 liter of culture supernatant were conditioned for ultrafiltration by adding Brij 35 to a final concentration of 0.02% and by adjusting the pH to 7.0 using 1 M HCl. Then the supernatant was first microfiltered through a 0.2 μm Ultran-Pilot Open Channel PES filter (Whatman) and afterwards concentrated to 1 liter through an Ultran-Pilot Screen Channel PES filter with 30 kDa MWCO (Whatman). Prior to IMAC chromatography, NiSO4 was added to a final concentration of 1 mM. The cleared supernatant was then applied to a HisTrap column (GE Healthcare) previously equilibrated in 50 mM Na2HPO4 pH 7.0, 0.5 M NaCl, 10% glycerol, 0.3% CHAPS, 0.02% NaN3. The column was washed stepwise with the same buffer containing 20 mM, 40 mM and 50 mM imidazole, respectively. The protein was subsequently eluted using a linear gradient to 0.5 M imidazole in 15 column volumes. ATX containing fractions were pooled and concentrated using an Amicon cell equipped with a 30 kDa PES filter membrane. The protein was further purified by size exclusion chromatography on Superdex S-200 prep grade (XK 26/100) (GE Healthcare) in 20 mM BICINE pH 8.5, 0.15 M NaCl, 10% glycerol, 0.3% CHAPS, 0.02% NaN3. […] The protein was stored at −80° C. […] 10 μL of MR121 substrate solution was added (1 μM final concentration), mixed 30 times and then incubated for 15 minutes at 30° C.

`O=C(c1cc(OCC2CCOCC2)cc(C2CC2)c1)N1CC[C@@H]2CN(C(=O)[C@@H]3CCc4[nH]nnc4C3)C[C@@H]2CC1` [Example 2.28, ((3aR,8aS)-6-(3-cyclopropyl-5-((tetrahydro-2H-pyran-4-yl)methoxy)benzoyl)octahydropyrrolo[3,4-d]azepin-2(1H)-yl)((R)-4,5,6,7-tetrahydro-1H-benzo[d][1,2,3]triazol-5-yl)methanone] and `O=C(c1cc(OCC2CCOCC2)cc(C2CC2)c1)N1C[C@@H]2CN(C(=O)[C@@H]3CCc4[nH]nnc4C3)C[C@H]2C1` [Example 1.16, ((3aS,6aS)-5-(3-cyclopropyl-5-((tetrahydro-2H-pyran-4-yl)methoxy)benzoyl)hexahydropyrrolo[3,4-c]pyrrol-2(1H)-yl)((R)-4,5,6,7-tetrahydro-1H-benzo[d][1,2,3]triazol-5-yl)methanone] are within 1.5-fold of each other in IC50: 7 nM for the first, 6 nM for the second.

`O=C(c1cnc(NC2CCOCC2)c(C2CC2)c1)N1C[C@@H]2CN(C(=O)[C@@H]3CCc4[nH]nnc4C3)C[C@H]2C1` [Example 2.11, ((3aS,6aS)-5-(5-cyclopropyl-6-(tetrahydro-2H-pyran-4-ylamino)nicotinoyl)hexahydropyrrolo[3,4-c]pyrrol-2(1H)-yl)((R)-4,5,6,7-tetrahydro-1H-benzo[d][1,2,3]triazol-5-yl)methanone] and `O=C(c1cnc(OC2CCCOC2)c(C2CC2)c1)N1C[C@@H]2CN(C(=O)[C@@H]3CCc4[nH]nnc4C3)C[C@H]2C1` (stereo partly drawn) [Example 2.12, ((3aS,6aS)-5-(5-cyclopropyl-6-(tetrahydro-2H-pyran-3-yloxy)nicotinoyl)hexahydropyrrolo[3,4-c]pyrrol-2(1H)-yl)((R)-4,5,6,7-tetrahydro-1H-benzo[d][1,2,3]triazol-5-yl)methanone] are within 1.5-fold of each other in IC50: 9 nM for the first, 11 nM for the second.

Going from `O=C(c1cnc(OC2CCOCC2)c(C2CC2)c1)N1C[C@@H]2CN(Cc3ccc4[nH]nnc4c3)C[C@H]2C1` [Example 4.01, ((3aS,6aS)-5-((1H-benzo[d][1,2,3]triazol-5-yl)methyl)hexahydropyrrolo[3,4-c]pyrrol-2(1H)-yl)(5-cyclopropyl-6-(tetrahydro-2H-pyran-4-yloxy)pyridin-3-yl)methanone] to `O=C(c1cnc(OC2CCOCC2)c(C2CC2)c1)N1C[C@@H]2CN(C(=O)c3ccc4[nH]nnc4c3)C[C@H]2C1` [Example 2.07, ((3aS,6aS)-5-(1H-benzo[d][1,2,3]triazole-5-carbonyl)hexahydropyrrolo[3,4-c]pyrrol-2(1H)-yl)(5-cyclopropyl-6-(tetrahydro-2H-pyran-4-yloxy)pyridin-3-yl)methanone], the IC50 falls from 39 nM to 10 nM (3.9-fold).

Going from `NS(=O)(=O)c1ccc(C(=O)N2C[C@H]3CN(C(=O)c4cnc(OC5CCOCC5)c(C5CC5)c4)C[C@@H]3C2)cc1` [Example 1.02, 4-((3aS,6aS)-5-(5-cyclopropyl-6-(tetrahydro-2H-pyran-4-yloxy)nicotinoyl)octahydropyrrolo[3,4-c]pyrrole-2-carbonyl)benzenesulfonamide] to `O=C(c1cnc(OC2CCCOC2)c(C2CC2)c1)N1C[C@@H]2CN(C(=O)c3ccc4[nH]nnc4c3)C[C@H]2C1` (stereo partly drawn) [Example 2.06, ((3aS,6aS)-5-(1H-benzo[d][1,2,3]triazole-5-carbonyl)hexahydropyrrolo[3,4-c]pyrrol-2(1H)-yl)(5-cyclopropyl-6-(tetrahydro-2H-pyran-3-yloxy)pyridin-3-yl)methanone], the IC50 falls from 22 nM to 4.5 nM (4.9-fold). The second is the more potent here.

Compared with `O=C(c1cc(OCC2CCOCC2)nc(C2CC2)c1)N1C[C@@H]2CN(Cc3ccc4[nH]c(=O)oc4c3)C[C@H]2C1` [Example 2.24, 6-(((3aS,6aS)-5-(2-cyclopropyl-6-((tetrahydro-2H-pyran-4-yl)methoxy)isonicotinoyl)hexahydropyrrolo[3,4-c]pyrrol-2(1H)-yl)methyl)benzo[d]oxazol-2(3H)-one], `O=C(c1cnc(OC2CCOCC2)c(C2CC2)c1)N1C[C@@H]2CN(Cc3ccc4[nH]c(=O)oc4c3)C[C@H]2C1` [Example 4, 6-(((3aS,6aS)-5-(5-Cyclopropyl-6-(tetrahydro-2H-pyran-4-yloxy)nicotinoyl)hexahydropyrrolo[3,4-c]pyrrol-2(1H)-yl)methyl)benzo[d]oxazol-2(3H)-one] is 1.7-fold higher in IC50: 11 nM for the first, 19 nM for the second.

Compared with `O=C(c1ccc(OC2CCOC2)c(C2CC2)c1)N1C[C@@H]2CN(C(=O)c3ccc4[nH]nnc4c3)C[C@H]2C1` (stereo partly drawn) [Example 2.03, ((3aR,6aR)-5-(1H-benzo[d][1,2,3]triazole-5-carbonyl)hexahydropyrrolo[3,4-c]pyrrol-2(1H)-yl)(3-cyclopropyl-4-(tetrahydrofuran-3-yloxy)phenyl)methanone], `O=C(c1cnc(NC2CCOCC2)c(C2CC2)c1)N1C[C@@H]2CN(C(=O)c3ccc4[nH]nnc4c3)C[C@H]2C1` [Example 2.04, ((3aS,6aS)-5-(1H-benzo[d][1,2,3]triazole-5-carbonyl)hexahydropyrrolo[3,4-c]pyrrol-2(1H)-yl)(5-cyclopropyl-6-(tetrahydro-2H-pyran-4-ylamino)pyridin-3-yl)methanone] is 4-fold higher in IC50: 10 nM for the first, 40 nM for the second. The first is the more potent here.

Compared with `O=C(CCc1c[nH]c(=O)s1)N1C[C@H]2CCN(C(=O)c3cc(OCC4CCOCC4)nc(C4CC4)c3)CC[C@H]2C1` [Example 1.22, 5-(3-((3aR,8aS)-6-(2-cyclopropyl-6-((tetrahydro-2H-pyran-4-yl)methoxy)isonicotinoyl)octahydropyrrolo[3,4-d]azepin-2(1H)-yl)-3-oxopropyl)thiazol-2(3H)-one], `NS(=O)(=O)c1ccc(C(=O)N2C[C@H]3CN(C(=O)c4cc(OCC5CCOCC5)nc(C5CC5)c4)C[C@@H]3C2)nc1` [Example 2.14, 6-((3aR,6aR)-5-(2-cyclopropyl-6-((tetrahydro-2H-pyran-4-yl)methoxy)isonicotinoyl)octahydropyrrolo[3,4-c]pyrrole-2-carbonyl)pyridine-3-sulfonamide] is 2.3-fold lower in IC50: 14 nM for the first, 6 nM for the second. The second is the more potent here.

`NS(=O)(=O)c1ccc(C(=O)N2C[C@H]3CN(C(=O)c4cc(OCC5CCOCC5)nc(C5CC5)c4)C[C@@H]3C2)cc1Cl` [Example 1.05, 2-chloro-4-((3aR,6aR)-5-(2-cyclopropyl-6-((tetrahydro-2H-pyran-4-yl)methoxy)isonicotinoyl)octahydropyrrolo[3,4-c]pyrrole-2-carbonyl)benzenesulfonamide] and `NS(=O)(=O)c1ccc(C(=O)N2C[C@H]3CN(C(=O)c4cc(OCC5CCOCC5)nc(C5CC5)c4)C[C@@H]3C2)cc1F` [Example 1.04, 4-((3aR,6aR)-5-(2-cyclopropyl-6-((tetrahydro-2H-pyran-4-yl)methoxy)isonicotinoyl)octahydropyrrolo[3,4-c]pyrrole-2-carbonyl)-2-fluorobenzenesulfonamide] are within 1.5-fold of each other in IC50: 6 nM for the first, 8 nM for the second.

`O=C(c1cc(OCC2CCCOC2)nc(C2CC2)c1)N1C[C@@H]2CN(C(=O)c3ccc4[nH]nnc4c3)C[C@H]2C1` (stereo partly drawn) [Example 2.15, ((3aS,6aS)-5-(1H-benzo[d][1,2,3]triazole-5-carbonyl)hexahydropyrrolo[3,4-c]pyrrol-2(1H)-yl)(2-cyclopropyl-6-((tetrahydro-2H-pyran-3-yl)methoxy)pyridin-4-yl)methanone] and `O=C(c1cc(OCC2CCCOC2)nc(C2CC2)c1)N1C[C@@H]2CN(Cc3ccc4[nH]nnc4c3)C[C@H]2C1` (stereo partly drawn) [Example 2.19, ((3aS,6aS)-5-((1H-benzo[d][1,2,3]triazol-5-yl)methyl)hexahydropyrrolo[3,4-c]pyrrol-2(1H)-yl)(2-cyclopropyl-6-((tetrahydro-2H-pyran-3-yl)methoxy)pyridin-4-yl)methanone] are within 1.5-fold of each other in IC50: 12 nM for the first, 10 nM for the second.

Compared with `O=C(c1cnc(OC2COC2)c(C(F)(F)F)c1)N1C[C@@H]2CN(C(=O)c3ccc4[nH]nnc4c3)C[C@H]2C1` [Example 2.08, ((3aS,6aS)-5-(1H-benzo[d][1,2,3]triazole-5-carbonyl)hexahydropyrrolo[3,4-c]pyrrol-2(1H)-yl)(6-(oxetan-3-yloxy)-5-(trifluoromethyl)pyridin-3-yl)methanone], `O=C(c1ccc(OC2CCOC2)c(C2CC2)c1)N1C[C@@H]2CN(C(=O)[C@@H]3CCc4[nH]nnc4C3)C[C@H]2C1` (stereo partly drawn) [Example 2.02, ((3aS,6aS)-5-(3-cyclopropyl-4-(tetrahydrofuran-3-yloxy)benzoyl)hexahydropyrrolo[3,4-c]pyrrol-2(1H)-yl)((R)-4,5,6,7-tetrahydro-1H-benzo[d][1,2,3]triazol-5-yl)methanone] is 4-fold lower in IC50: 68.5 nM for the first, 17 nM for the second.
